Measured values published in US20110100079A1, “METHOD FOR IMPARTING STRESS TOLERANCE TO PLANT” (priority 2007, published 2011).

What was measured:
Format in all cases: in vivo
tomato = test: Example 8 temperature stress test (tomato), soil culture; conditions: 100 ppm, 2 weeks; for Fresh weight, relative value (untreated plot = 100), Comparison 1: stress-free: tomato soil culture, cultivation temperature 23, EC 1, pF 1.7, two-leaf stage; for Fresh weight, relative value (untreated plot = 100), Test 1 / Fresh weight, relative value (untreated plot = 100), Test 2 / Fresh weight, relative value (untreated plot = 100), Test 3 / Fresh weight, relative value (untreated plot = 100), Test 4: tomato soil culture; for Fresh weight, relative value (untreated plot = 100), Test 1: cultivation temperature 10, EC 1, pF 1.7, two-leaf stage; for Fresh weight, relative value (untreated plot = 100), Test 2: cultivation temperature 16, EC 1, pF 1.7, two-leaf stage; for Fresh weight, relative value (untreated plot = 100), Test 3: cultivation temperature 29, EC 1, pF 1.7, two-leaf stage; for Fresh weight, relative value (untreated plot = 100), Test 4: cultivation temperature 35, EC 1, pF 1.7, two-leaf stage
Description: Other Conditions were as in Example 5. The environmental conditions in a climatic chamber were controlled so as to have an illuminance by a fluorescent light of 5000 Lux, a daily light-dark cycle of a 16-hour light period and an 8-hour dark period, and various temperatures. Tomatoes as prepared above were transplanted in size-3 (9 cm) pots. A treatment solution containing a compound of Table 1 in a specific concentration (the remainder was water) was prepared and sprayed onto the leaves or applied to the underground portions. […] A comparative example was constructed to reflect the temperature stress-free optimum cultivation conditions to investigate the plant energizing ability. […] Moreover, when the products of the present invention and the comparative products were compared, the stress tolerance imparting ability of the products of the present invention was higher in respective temperature stress conditions.

“Momotaro” tomato [1] = test: Example 4 salt stress tolerance imparting test (tomato, tap water + NaCl); conditions: tap water + NaCl 3510 ppm, 2 weeks
Excerpt: NaCl concentration 3510 ppm (water potential by NaCl: […]) (4) Cultivation period: two weeks (5) Plant preparation: A 50-cell tray was filled with Kureha gardening soil manufactured by Kureha Corporation (fertilizer components: N:P:K=0.4:1.9:0.6 g/kg soil), and seeds of a “Momotaro” tomato were sowed, thinly covered with Kureha gardening soil, and sufficiently irrigated to allow the seeds to sprout. When the leaves in the 2-leaf stage fully unfolded, the soil on the tomato roots was carefully washed away with running water, and a test was performed. (6) The chemicals used and the concentration of a treatment solution were as in Example 1 (7) Amount of application: 10 ml/specimen for leaf spraying, 50 ml/specimen for fertigation Method of Salt Stress Tolerance Imparting Test […]

“Momotaro” tomato [2] = test: Example 1 salt stress tolerance imparting test (tomato, hydroponic, Otsuka 1/2A + NaCl); conditions: 2 weeks
Description: (1) Salt stress-free test conditions: NaCl concentration (water potential by Nan): 0 ppm (0 MPa). Other cultivation conditions were as the same as the conditions of the drying stress test.
When the leaves in the 2-leaf stage fully unfolded, the soil on the tomato roots was carefully washed away with running water, and a test was performed.
Method of Salt Stress Tolerance Imparting Test
The environmental conditions in a climatic chamber were controlled so as to have a temperature of 23° C., an illuminance by a fluorescent light of 5000 Lux, and a daily light-dark cycle of a 16-hour light period and an 8-hour dark period. […] A treatment solution containing a compound of Table 1 in a specific concentration (the remainder was water) was prepared and sprayed onto the leaves or applied to the underground portion. In addition, a control plot to which no NaCl was added, not imposing a salt stress (this is a control plot for plant body weight 2 for Formula (ii) and is a stress-free control plot) and a control plot to which NaCl was added in various concentrations, imposing a salt stress, and to which the treatment solution was not applied (this is a control plot for plant body weight 1 for Formula (ii) and is a control plot including a salt stress) were prepared as controls. Ten specimens were prepared for each of the test plot and the control plots, and a plant stress level and an extent of imparting plant stress tolerance were calculated according to Formulas (II) above using as a fresh plant body weight the average of the fresh plant body weights of each specimen 2 weeks after the beginning of the test.

| Molecule | Fresh weight, relative value (untreated plot = 100), Comparison 1 (tomato; leaf) | Fresh weight, relative value (untreated plot = 100), Test 1 (tomato; leaf) | Fresh weight, relative value (untreated plot = 100), Test 2 (tomato; leaf) | Fresh weight, relative value (untreated plot = 100), Test 3 (tomato; leaf) | Fresh weight, relative value (untreated plot = 100), Test 4 (tomato; leaf) | Extent of imparting plant stress tolerance (“Momotaro” tomato [1]; leaf, 100 ppm) | Extent of imparting plant stress tolerance (“Momotaro” tomato [2]; NaCl 3510 ppm, leaf, 100 ppm) | other results |
| --- | --- | --- | --- | --- | --- | --- | --- | --- |
| O=C(O)[C@@H]1CCCN1 [Comparative product 2, Proline, reference compound] | 101 | 100 | 100 | 101 | 101 | 103% |  | Fresh weight, relative value (untreated plot = 100), Comparison 1 (tomato; underground portion): 102; Fresh weight, relative value (untreated plot = 100), Test 1 (tomato; underground portion): 100; Fresh weight, relative value (untreated plot = 100), Test 2 (tomato; underground portion): 100; Fresh weight, relative value (untreated plot = 100), Test 3 (tomato; underground portion): 101; Fresh weight, relative value (untreated plot = 100), Test 4 (tomato; underground portion): 100 |
| C[N+](C)(C)CC(=O)[O-] [Comparative product 3, Glycine betaine, reference compound] | 102 | 100 | 100 | 101 | 101 | 103% | 103% |  |
| OC[C@H]1O[C@H](OC[C@H]2O[C@H](O[C@]3(CO)O[C@H](CO)[C@@H](O)[C@@H]3O)[C@H](O)[C@@H](O)[C@@H]2O)[C@H](O)[C@@H](O)[C@H]1O [Comparative product 4, Raffinose, reference compound] | 102 | 100 | 100 | 101 | 101 | 102% |  |  |
| Alkyl (C10) polyglycoside [Product of present invention 15] | 102 | 116 | 119 | 136 | 126 | 116% | 115% | Extent of imparting plant stress tolerance (“Momotaro” tomato [1]; leaf, 200 ppm): 113%; Extent of imparting plant stress tolerance (“Momotaro” tomato [2]; NaCl 3510 ppm, leaf, 200 ppm): 114% |
| Alkyl (C12-14) polyglycoside [Product of present invention 16] |  |  |  |  |  | 117% | 115% |  |
| POE (6) sorbitan monooleic acid ester [Product of present invention 10] |  |  |  |  |  | 112% | 113% |  |
| POE (20) sorbitan monolauric acid ester [Product of present invention 12] | 102 | 124 | 126 | 144 | 132 | 116% | 116% | Extent of imparting plant stress tolerance (“Momotaro” tomato [1]; leaf, 200 ppm): 117%; Extent of imparting plant stress tolerance (“Momotaro” tomato [2]; NaCl 3510 ppm, leaf, 200 ppm): 120% |
| POE (20) sorbitan monooleic acid ester [Product of present invention 1] |  |  |  |  |  | 113% | 113% | Fresh weight, relative value (untreated plot = 100), Comparison 1 (tomato; underground portion): 103; Fresh weight, relative value (untreated plot = 100), Test 1 (tomato; underground portion): 128; Fresh weight, relative value (untreated plot = 100), Test 2 (tomato; underground portion): 131; Fresh weight, relative value (untreated plot = 100), Test 3 (tomato; underground portion): 158; Fresh weight, relative value (untreated plot = 100), Test 4 (tomato; underground portion): 138; Extent of imparting plant stress tolerance (“Momotaro” tomato [1]; leaf, 1 ppm): 112%; Extent of imparting plant stress tolerance (“Momotaro” tomato [1]; leaf, 10 ppm): 113%; Extent of imparting plant stress tolerance (“Momotaro” tomato [1]; leaf, 1000 ppm): 119%; Extent of imparting plant stress tolerance (“Momotaro” tomato [1]; underground portion, 100 ppm): 130%; Extent of imparting plant stress tolerance (“Momotaro” tomato [2]; NaCl 1500 ppm, leaf, 100 ppm): 113%; Extent of imparting plant stress tolerance (“Momotaro” tomato [2]; NaCl 1500 ppm, underground portion, 100 ppm): 124%; Extent of imparting plant stress tolerance (“Momotaro” tomato [2]; NaCl 3510 ppm, leaf, 1 ppm): 111%; Extent of imparting plant stress tolerance (“Momotaro” tomato [2]; NaCl 3510 ppm, leaf, 10 ppm): 112%; Extent of imparting plant stress tolerance (“Momotaro” tomato [2]; NaCl 3510 ppm, leaf, 1000 ppm): 118%; Extent of imparting plant stress tolerance (“Momotaro” tomato [2]; NaCl 3510 ppm, underground portion, 100 ppm): 130%; Extent of imparting plant stress tolerance (“Momotaro” tomato [2]; NaCl 5000 ppm, leaf, 100 ppm): 125%; Extent of imparting plant stress tolerance (“Momotaro” tomato [2]; NaCl 5000 ppm, underground portion, 100 ppm): 135% |
| POE (20) sorbitan monopalmitic acid ester [Product of present invention 13] |  |  |  |  |  | 116% | 117% |  |
| POE (20) sorbitan monostearic acid ester [Product of present invention 14] |  |  |  |  |  | 114% | 116% |  |
| Sorbitan monooleic acid ester [Product of present invention 11] |  |  |  |  |  | 112% | 112% |  |
| Sucrose fatty acid ester (C16, HLB = 15) [Product of present invention 21] |  |  |  |  |  | 117% | 114% |  |
| Sucrose fatty acid ester (C18, HLB = 9) [Product of present invention 18] |  |  |  |  |  | 113% | 112% |  |
| Sucrose fatty acid ester (C18, HLB = 11) [Product of present invention 19] |  |  |  |  |  | 114% | 113% |  |
| Sucrose fatty acid ester (C18:1, HLB = 15) [Product of present invention 22] |  |  |  |  |  | 118% |  | Extent of imparting plant stress tolerance (“Momotaro” tomato [1]; leaf, 200 ppm): 111%; Extent of imparting plant stress tolerance (“Momotaro” tomato [2]; NaCl 3510 ppm, leaf, 200 ppm): 112% |
